Data taken from publication PMC7925390 (Frontiers in Microbiology, 2021).
Where two headings read alike, the source gives them in different places. Each block holds one molecule with its values, some of them ahead of it.

Legend:
TsPYK [1] = target: T1, TsPYK (Thermoanaerobacterium saccharolyticum, UniProt I3VV25); assay: Kapp–PEP versus effector concentration, lactate dehydrogenase coupled assay; type: biochemical; conditions: 10 mM ADP, 15 mM MgCl2, 30 °C
T1 construct: gene Tsac_1363; full length with extra-C domain; N-terminal 6XHis tag kept (6XHis-MBP-SUMO tag in later expression); expressed in E. coli FF50 / QTF60 (pykA pykF deleted); homotetramer
T1 sequence (I3VV25 1-583): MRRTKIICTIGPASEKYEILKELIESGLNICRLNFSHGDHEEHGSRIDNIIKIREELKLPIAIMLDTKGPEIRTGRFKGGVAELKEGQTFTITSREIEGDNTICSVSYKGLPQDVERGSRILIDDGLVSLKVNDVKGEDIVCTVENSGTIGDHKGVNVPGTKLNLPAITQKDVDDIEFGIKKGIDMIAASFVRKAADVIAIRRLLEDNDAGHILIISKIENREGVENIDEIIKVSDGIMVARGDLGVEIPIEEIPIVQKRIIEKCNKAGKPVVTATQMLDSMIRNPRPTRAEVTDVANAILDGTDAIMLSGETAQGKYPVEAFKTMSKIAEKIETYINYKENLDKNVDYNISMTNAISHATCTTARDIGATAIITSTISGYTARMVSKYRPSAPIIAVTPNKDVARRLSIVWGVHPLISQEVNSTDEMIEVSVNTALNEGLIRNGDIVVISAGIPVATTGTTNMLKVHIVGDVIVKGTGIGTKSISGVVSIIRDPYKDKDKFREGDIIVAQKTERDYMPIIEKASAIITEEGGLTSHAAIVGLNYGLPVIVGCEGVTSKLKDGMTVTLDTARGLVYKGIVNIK

[2] = target: T2, TsPYK extra-C domain truncated (Thermoanaerobacterium saccharolyticum, UniProt I3VV25); assay: as above; type: biochemical; conditions: allosteric activator; 10 mM ADP, 15 mM MgCl2, 30 °C
T2 construct: gene Tsac_1363; N-terminal 6XHis-MBP-SUMO tag kept; expressed in E. coli QTF60

TsPYK [3] = target: T1, TsPYK; assay: Kapp–PEP versus effector concentration, lactate dehydrogenase coupled assay, linkage fit; type: biochemical; conditions: Kix in absence of PEP, 10 mM ADP, 15 mM MgCl2, 30 °C
Source text: Kapp–PEP versus effector concentration, lactate dehydrogenase coupled assay, linkage fit on TsPYK

C. bescii PYK [4] = target: T3, C. bescii PYK (Caldicellulosiruptor bescii, UniProt A0ABY1S964); assay: Kapp–PEP versus effector concentration, lactate dehydrogenase coupled assay; type: biochemical; conditions: allosteric activator; 10 mM ADP, 15 mM MgCl2, 30 °C
T3 construct: gene SAMN05216240_1829; full length with extra-C domain; N-terminal 6XHis-MBP-SUMO tag kept; expressed in E. coli QTF60

E. coli Type A [5] = target: T4, E. coli Type A (Escherichia coli, UniProt P21599); assay: as above; type: biochemical; conditions: allosteric activator; 10 mM ADP, 15 mM MgCl2, 30 °C
T4 construct: gene pykA; full length; no extra-C domain; N-terminal 6XHis-MBP-SUMO tag kept; expressed in E. coli QTF60

C. bescii PYK [6] = target: T3, C. bescii PYK; assay: lactate dehydrogenase coupled NADH assay, A340, Hill fit; type: biochemical; conditions: 10 mM ADP, 15 mM MgCl2, 30 °C; no effector
E. coli Type F = target: T5, E. coli Type F (Escherichia coli, UniProt P0AD61); assay: as above; type: biochemical; conditions: 10 mM ADP, 15 mM MgCl2, 30 °C; no effector
T5 construct: gene pykF; full length; no extra-C domain; N-terminal 6XHis-MBP-SUMO tag kept; expressed in E. coli QTF60

E. coli Type A [7] = target: T4, E. coli Type A; assay: as above; type: biochemical; conditions: 10 mM ADP, 15 mM MgCl2, 30 °C; no effector
[8] = target: T2, TsPYK extra-C domain truncated; assay: as above; type: biochemical; conditions: 10 mM ADP, 15 mM MgCl2, 30 °C; no effector
[9] = substrate: C=C(OP(=O)(O)O)C(=O)O; assay: as above; type: biochemical, Thermoanaerobacterium saccharolyticum; conditions: 10 mM ADP, 15 mM MgCl2, 195 mM K+, 80 mM Na+, 50 mM HEPES, 30 °C, no effector, ± sign lost in table text
Source text: lactate dehydrogenase coupled NADH assay, A340, Hill fit on TsPYK

T3 sequence (A0ABY1S964 entry or part of it): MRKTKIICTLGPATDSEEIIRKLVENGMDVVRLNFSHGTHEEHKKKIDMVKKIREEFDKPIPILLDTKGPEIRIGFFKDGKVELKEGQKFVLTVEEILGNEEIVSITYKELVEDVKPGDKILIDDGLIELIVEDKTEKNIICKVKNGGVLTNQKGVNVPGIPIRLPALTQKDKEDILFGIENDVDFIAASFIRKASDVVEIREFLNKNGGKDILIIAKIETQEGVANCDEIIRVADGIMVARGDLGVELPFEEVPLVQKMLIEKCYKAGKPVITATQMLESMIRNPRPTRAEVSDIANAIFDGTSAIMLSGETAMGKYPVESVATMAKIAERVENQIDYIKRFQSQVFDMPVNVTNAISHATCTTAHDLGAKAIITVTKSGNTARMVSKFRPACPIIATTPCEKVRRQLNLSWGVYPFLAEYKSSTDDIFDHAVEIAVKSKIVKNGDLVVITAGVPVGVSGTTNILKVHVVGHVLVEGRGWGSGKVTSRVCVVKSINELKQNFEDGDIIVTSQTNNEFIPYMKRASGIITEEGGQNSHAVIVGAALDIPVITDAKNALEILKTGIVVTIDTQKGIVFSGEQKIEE
T4 sequence (P21599 whole entry): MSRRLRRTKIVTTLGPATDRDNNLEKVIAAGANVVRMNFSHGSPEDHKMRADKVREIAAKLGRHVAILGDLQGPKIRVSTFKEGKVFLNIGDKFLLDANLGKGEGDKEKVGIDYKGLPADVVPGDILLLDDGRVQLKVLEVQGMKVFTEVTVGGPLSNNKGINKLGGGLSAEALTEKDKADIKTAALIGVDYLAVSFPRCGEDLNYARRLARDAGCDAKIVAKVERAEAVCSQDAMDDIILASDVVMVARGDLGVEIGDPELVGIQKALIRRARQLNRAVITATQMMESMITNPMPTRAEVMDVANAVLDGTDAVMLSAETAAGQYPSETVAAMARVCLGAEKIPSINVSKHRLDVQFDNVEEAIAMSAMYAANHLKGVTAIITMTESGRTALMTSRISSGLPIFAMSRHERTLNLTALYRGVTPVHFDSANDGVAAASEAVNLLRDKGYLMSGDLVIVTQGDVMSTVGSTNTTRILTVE
T5 sequence (P0AD61 whole entry): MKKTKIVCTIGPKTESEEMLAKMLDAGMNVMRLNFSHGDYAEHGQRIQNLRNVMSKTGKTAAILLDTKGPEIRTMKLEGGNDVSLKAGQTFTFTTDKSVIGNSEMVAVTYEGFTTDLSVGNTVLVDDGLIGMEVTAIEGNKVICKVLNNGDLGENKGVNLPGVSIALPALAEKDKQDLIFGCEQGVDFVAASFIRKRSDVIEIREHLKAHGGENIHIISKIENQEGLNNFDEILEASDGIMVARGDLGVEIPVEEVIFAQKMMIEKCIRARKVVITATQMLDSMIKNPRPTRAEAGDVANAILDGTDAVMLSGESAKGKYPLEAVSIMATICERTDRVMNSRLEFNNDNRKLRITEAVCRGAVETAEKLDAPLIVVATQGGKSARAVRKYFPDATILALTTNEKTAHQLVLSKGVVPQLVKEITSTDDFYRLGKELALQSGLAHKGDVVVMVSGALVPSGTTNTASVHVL

Molecule: O=C[C@H](O)COP(=O)(O)O [glyceraldehyde 3-phosphate]
Kapp-PEP shift (TsPYK [1]; allosteric inhibitor): glyceraldehyde 3-phosphate, fructose-6-phosphate, IMP or GMP all caused reduced affinity for PEP

Molecule: O=P(O)(O)OC[C@H]1OC(O)(CO)[C@@H](O)[C@@H]1O (some centres unmarked) [fructose-6-phosphate]
Kapp-PEP shift (TsPYK [1]; allosteric inhibitor): glyceraldehyde 3-phosphate, fructose-6-phosphate, IMP or GMP all caused reduced affinity for PEP

Molecule: Nc1ncnc2c1ncn2[C@H]1C[C@H](O)[C@@H](COP(=O)(O)O)O1 [2-deoxyadenonsine-5′MP]
Kapp-PEP shift (TsPYK [1]; allosteric activator): generated a response very similar to AMP (slightly reduced binding)

Kd (TsPYK [3]; allosteric activator, ± sign lost in table text, read-out: Kix-AMP): 90 ± 60 µM
Molecule: Nc1ncnc2c1ncn2[C@@H]1O[C@H](COP(=O)(O)O)[C@@H](O)[C@H]1O [AMP]
Kapp-PEP shift [2]: Activation by AMP was not influenced by the removal of the extra-C domain.
Kapp-PEP shift (C. bescii PYK [4]): the isozyme from C. bescii were inhibited by IMP and activated by AMP
Kapp-PEP shift (E. coli Type A [5]): the E. coli type A isozyme was activated by both AMP and IMP

Molecule: C=C(OP(=O)(O)O)C(=O)O [PEP]
Kapp-PEP (C. bescii PYK [6]): The response of three bacterial PYK isozymes to AMP and IMP.
Kapp-PEP (E. coli Type F): The response of three bacterial PYK isozymes to AMP and IMP.
Kapp-PEP (E. coli Type A [7]): The response of three bacterial PYK isozymes to AMP and IMP.
Kapp-PEP [8]: A comparison of responses to IMP and AMP for the full length TsPYK

Kd (TsPYK [3]; allosteric activator, ± sign lost in table text (printed 1110), read-out: Kix-R5P): 11000 ± 10000 µM
Molecule: O=P(O)(O)OC[C@H]1OC(O)[C@H](O)[C@@H]1O (some centres unmarked) [R5P]

Kd (TsPYK [3]; allosteric inhibitor, ± sign lost in table text (printed 11), read-out: Kix-GMP): 1000 ± 1000 µM
Molecule: Nc1nc2c(ncn2[C@@H]2O[C@H](COP(=O)(O)O)[C@@H](O)[C@H]2O)c(=O)[nH]1 [GMP]

B1: TsPYK (Thermoanaerobacterium saccharolyticum JW/SL-YS485) (protein)
chain: T1 sequence (I3VV25 1-583)
notes: full length with extra-C domain; N-terminal 6XHis tag kept (6XHis-MBP-SUMO tag in later expression); expressed in E. coli FF50 / QTF60 (pykA pykF deleted); homotetramer
K0.5 [9]: 0.63 ± 0.03 mM
